Results as given in patent US7057052B2, “Heterocyclic quinones as pharmaceutical agents” (Duke University, priority 2002, dated 2006).

Legend:
Type in all cases: biochemical
Cdc25C = target: T1, Cdc25C (Homo sapiens, UniProt P30307); assay: Cdc25C phosphatase inhibition screen at 50 μM; conditions: for inhibition at 50 µM: read-out: Percent Inhibition at 50 uM compound, Cdc25 C
T1 sequence (P30307 1-473): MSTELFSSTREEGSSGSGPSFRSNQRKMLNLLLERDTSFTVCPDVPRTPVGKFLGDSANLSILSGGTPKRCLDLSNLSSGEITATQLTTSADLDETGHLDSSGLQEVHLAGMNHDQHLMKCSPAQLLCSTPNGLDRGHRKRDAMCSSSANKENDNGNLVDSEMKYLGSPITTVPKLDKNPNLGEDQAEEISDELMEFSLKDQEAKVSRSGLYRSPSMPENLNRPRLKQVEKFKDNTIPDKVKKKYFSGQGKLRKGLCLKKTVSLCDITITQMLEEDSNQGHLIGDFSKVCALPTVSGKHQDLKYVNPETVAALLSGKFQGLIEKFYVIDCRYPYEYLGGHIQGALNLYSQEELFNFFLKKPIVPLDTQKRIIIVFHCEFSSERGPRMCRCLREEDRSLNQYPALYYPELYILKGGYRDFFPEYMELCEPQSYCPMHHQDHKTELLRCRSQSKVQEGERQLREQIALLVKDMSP
Method: (§1) Using procedures known to those skilled in the art, the compounds listed in Table 3 were screened against Cdc25A, Cdc25B, and Cdc25C at 50 μM. […] To analyze these effects further, the compounds were then screened against Cdc25B in a 3 pt. IC-50, using 1, 7 and 50 μM. Several of the compounds were also screened with an 8 pt. IC-50 process, using 0.1–10 μM, allowing determination of Hill slopes.

Cdc25A = target: T2, Cdc25A (Homo sapiens, UniProt P30304); assay: Cdc25A phosphatase inhibition screen at 50 μM; conditions: for inhibition at 50 µM: read-out: Percent Inhibition at 50 uM compound, Cdc25 A
T2 sequence (P30304 1-524): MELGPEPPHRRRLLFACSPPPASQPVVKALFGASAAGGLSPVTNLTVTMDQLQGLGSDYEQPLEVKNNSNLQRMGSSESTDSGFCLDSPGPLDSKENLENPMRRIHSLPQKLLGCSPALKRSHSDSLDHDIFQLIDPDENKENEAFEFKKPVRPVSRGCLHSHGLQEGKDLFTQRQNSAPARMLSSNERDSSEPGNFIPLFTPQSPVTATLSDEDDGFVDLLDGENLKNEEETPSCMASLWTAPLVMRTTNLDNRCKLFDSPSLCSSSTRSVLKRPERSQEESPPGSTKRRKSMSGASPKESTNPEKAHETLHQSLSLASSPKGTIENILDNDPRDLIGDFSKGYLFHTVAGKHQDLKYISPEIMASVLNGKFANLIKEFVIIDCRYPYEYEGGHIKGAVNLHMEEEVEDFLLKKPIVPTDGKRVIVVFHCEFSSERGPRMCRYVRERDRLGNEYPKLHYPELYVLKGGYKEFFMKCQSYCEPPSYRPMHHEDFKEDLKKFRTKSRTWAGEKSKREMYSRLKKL
Method: as §1

Cdc25B = target: T3, Cdc25B (Homo sapiens, UniProt P30305); assay: Cdc25B phosphatase inhibition (50 μM screen, 3 pt. and 8 pt. IC-50); conditions: for IC50: Cdc25B, 3 pt. IC-50 using 1, 7 and 50 μM, read-out: IC50 (3 pt); for inhibition at 50 µM: read-out: Percent Inhibition at 50 uM compound, Cdc25 B
T3 sequence (P30305 1-580): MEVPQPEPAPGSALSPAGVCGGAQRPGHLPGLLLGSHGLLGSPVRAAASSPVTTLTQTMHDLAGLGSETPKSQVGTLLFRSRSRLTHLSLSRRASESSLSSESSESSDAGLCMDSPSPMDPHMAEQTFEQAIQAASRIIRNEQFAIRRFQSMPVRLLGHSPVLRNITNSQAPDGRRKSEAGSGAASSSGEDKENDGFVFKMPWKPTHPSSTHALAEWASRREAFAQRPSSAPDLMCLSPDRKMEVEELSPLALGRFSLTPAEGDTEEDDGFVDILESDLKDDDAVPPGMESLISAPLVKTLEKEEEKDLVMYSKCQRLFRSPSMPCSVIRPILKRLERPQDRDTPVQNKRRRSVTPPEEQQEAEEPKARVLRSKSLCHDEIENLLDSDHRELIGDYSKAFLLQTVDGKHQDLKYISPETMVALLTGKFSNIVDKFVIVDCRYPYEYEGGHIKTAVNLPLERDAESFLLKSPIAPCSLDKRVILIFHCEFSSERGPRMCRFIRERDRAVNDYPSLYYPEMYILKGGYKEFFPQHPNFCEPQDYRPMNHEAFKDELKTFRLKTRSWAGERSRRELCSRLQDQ
Method: as §1

SMILES	inhibition at 50 µM (Cdc25C)	inhibition at 50 µM (Cdc25A)	IC50 (Cdc25B)	inhibition at 50 µM (Cdc25B)	Percent Inhibition at 50 uM compound, Cdc25 C (Cdc25C; 50 uM compound)	Percent Inhibition at 50 uM compound, Cdc25 A (Cdc25A; 50 uM compound)	Percent Inhibition at 50 uM compound, Cdc25 B (Cdc25B; 50 uM compound)
Cc1ccc2[nH]cc(C3=C(O)C(=O)C=C(O)C3=O)c2c1 [4H, 2,5-dihydroxy-3-(5-methyl-1H-indol-3-yl)-[1,4]-benzoquinone]	55%	94%	2.5 µM	61%	–	–	–
CC(C)c1[nH]c2ccccc2c1C1=C(O)C(=O)C=C(O)C1=O [2F, 2,5-dihydroxy-3-(2-isopropyl-1H-indol-3-yl)-[1,4]-benzoquinone]	0%	58%	8.3 µM	13%	–	–	–
O=C1C=C(O)C(=O)C(c2c[nH]c3c2ccc2ccccc23)=C1O [8C, 2,5-dihydroxy-3-(1H-benzo[g]indol-3-yl)-[1,4]-benzoquinone]	75%	98%	2.8 µM	79%	–	–	–
Cc1cccc2c(C3=C(O)C(=O)c4cccc(O)c4C3=O)c[nH]c12 [4E, 2,5-dihydoxy-3-(7-methyl-1H-indol-3-yl)-[1,4]naphthoquinone]	–	–	69.3 µM	–	0%	10%	0%
CC(C)=CCc1cccc2c(C3=C(O)C(=O)C=C(O)C3=O)c[nH]c12 [6B, 2,5-dihydroxy-3-(7-prenyl-1H-indol-3-yl)-[1,4]-benzoquinone]	84%	100%	2.1 µM	99%	–	–	–
O=C1C=C(O)C(=O)C(c2c[nH]c3cc(Cl)ccc23)=C1O [5B, 2,5-dihydroxy-3-(6-chloro-1H-indol-3-yl)-[1,4]-benzoquinone]	81%	99%	2.4 µM	92%	–	–	–
Cn1cc(C2=C(O)C(=O)C=C(O)C2=O)c2ccccc21 [2B, 2,5-dihydroxy-3-(1-methyl-1H-indol-3-yl)-[1,4]-benzoquinone]	19%	63%	185 µM	42%	–	–	–
O=C1C=C(O)C(=O)C(c2c(-c3ccccc3)[nH]c3ccccc23)=C1O [3B, 2,5-dihydroxy-3-(2-phenyl-1H-indol-3-yl)-[1,4]-benzoquinone]	18%	93%	22.2 µM	38%	–	–	–
Cc1cccc2[nH]cc(C3=C(O)C(=O)C=C(O)C3=O)c12 [4A, 2,5-dihydroxy-3-(4-methyl-1H-indol-3-yl)-[1,4]-benzoquinone]	28%	51%	6 µM	9%	–	–	–
O=C1C=C(O)C(=O)C(c2c[nH]c3cccc(OCc4ccccc4)c23)=C1O [3H, 2,5-dihydroxy-3-(4-benzyloxy-1H-indol-3-yl)-[1,4]-benzoquinone]	2%	87%	4.6 µM	0%	–	–	–
Cc1ccc2c(C3=C(O)C(=O)C=C(O)C3=O)c[nH]c2c1C [8B, 2,5-dihydroxy-3-(6,7-dimethyl-1H-indol-3-yl)-[1,4]-benzoquinone]	20%	90%	12.8 µM	32%	–	–	–
CC(C)(C)c1[nH]c2ccccc2c1C1=C(Cl)C(=O)C(c2c[nH]c3c(C(C)(C)C)cccc23)=C(O)C1=O [8D, 2-(2-tert-butyl-1H-indol-3-yl)-5-(7-tert-butyl-1H-indol-3-yl)-3-chloro-6-hydroxy-[1,4]-benzoquinone]	–	–	5.8 µM	–	–	–	–
CC(C)(C)c1[nH]c2ccccc2c1C1=C(Cl)C(=O)C(c2c(-c3ccccc3)[nH]c3ccccc23)=C(O)C1=O [11H, 2-(2-tert-butyl-1H-indol-3-yl)-5-(2-phenyl-1H-indol-3-yl)-3-chloro-6-hydroxy-[1,4]-benzoquinone]	–	–	6.7 µM	–	–	–	–
